What was measured:
[1] = Case studies: local anesthesia by injection to the mouth region before dental procedures; assay type: in vivo, human; details: for anesthetic effect of one local anesthetic alone: cases previously observed by the inventors; for local anesthetic effect / pain relief during dental procedures: patients with a history of poor pain relief after just one local anesthetic, injection to mouth region
From the text: The experiments and disclosures provided herein are based on 9 case studies performed on patients that had, or previously has had phenotype red hair. The inventors performed odontological procedures on the patients and compared pain relief to prior experiences with local anesthetics.
9 patients with a history of poor pain relief after administration of just one local anesthetic received a combination of lidocaine and prilocaine before various dental procedures where performed. The patients pain sensation was the noted in case studies kept at the inventor's clinic.
Commercially available Xylocain Dental Adrenaline (lidocaine HCL 20 mg/mL with epinephrine 12.5 μg/mL) and Citanest Dental Octopressin (prilocaine HCL 30 mg/mL and felypressin 0.54 μg/mL) was administered by injection to mouth region of the patient for pain relief. Both Xylocain Dental Adrenaline and Citanest Dental Octopressin was provided in cartridges containing 1.8 mL of solution comprising active ingredients in said concentrations.

[2] = in vivo; cited from earlier work
[3] = Local anesthesia for a dislocated shoulder (incident described by patient 192293); assay type: in vivo, human; details: three attempts of administration, patient's own account
[4] = local anesthesia or nerve blocks; cited from earlier work
[5] = given subcutaneously; cited from earlier work

Compound | anesthetic effect of one local anesthetic alone [1] | metabolism and excretion [2] | local anesthetic effect / pain relief during dental procedures [1] | local anesthetic effect / pain relief during dental procedures ([1]; listed as Lidocaine) | pain relief [3] | onset of effect [4] | anesthetic effects in redheads [5]
CCCNC(C)C(=O)Nc1ccccc1C (stereo not drawn) [prilocaine] | did not provide adequate anesthetic effect | rapidly metabolized by the liver and excreted in the urine as o-toluidine | – | – | – | – | –
CCN(CC)CC(=O)Nc1c(C)cccc1C [lidocaine] | did not provide adequate anesthetic effect | – | Poor effect | not effective | without obtaining adequate pain relief | within several minutes | resistant to the anesthetic effects
CCN(CC)CCOC(=O)c1ccc(N)cc1 [novocaine] | – | – | – | – | – | – | resistant to the anesthetic effects
